Reference: patent US20260345555A1, “Compositions and Methods for Protecting Salivary Glands from Off-Target Radiation Damage” (University of Rochester, priority 2022, published 2026)
pEC50: −log10 of the molar value. “Also recorded” adds a separate entry of the source.

How the values were obtained:
[1] = test system: senescence-associated β-galactosidase in salivary gland cell clusters (SGm); test: Cellular senescence assay (SPiDER-βGal) in salivary gland tissue chip, 5 days post-radiation (15 Gy); also second screen of library hits at 100 μM; type: cell-based, mouse; settings: for protection against radiation-induced senescence / Estimated EC50, Senescence / radioprotection in dose response, senescence assay: 15 Gy; for protection against radiation-induced senescence: 5 days post-radiation; for double hit in the drug screen: glutathione and senescence assays, 100 μM, statistically similar to 0 Gy; for Estimated EC50, Senescence: nonlinear fit in Prism of dose response curves; for Senescence (radioprotection): key: +: radioprotection; ~: partial radioprotection; —: no radioprotection
lymphocyte cells = settings: cited from earlier work
COX-1 = settings: role: inhibitor; cited from earlier work
[2] = in vivo; cited from earlier work
COX-2 = settings: role: inhibitor; cited from earlier work
[3] = in vivo; cited from earlier work; remark: listed apart in the source

## NCCCNCCS [WR-1065]
[1]; 1 mM
  Senescence (radioprotection): +
  protection against radiation-induced senescence: complete radioprotection
[1]; 4 mM
  Senescence (radioprotection): +
  protection against radiation-induced senescence: complete radioprotection; also recorded: restored to levels equivalent to 0 Gy

## CCn1cc(C(=O)O)c(=O)c2cc(F)c(N3CCNCC3)nc21 [Enoxacin (Penetrex)]
[1]
  double hit in the drug screen: double hits
  Estimated EC50, Senescence: 0.5 µM
Lymphocyte cells; radioprotection, read-out: EC50, viability of lymphocyte cells
  pEC50: 4.89
Lymphocyte cells; viability of lymphocytes as primary readout
  radioprotection of lymphocytes: robust radioprotectors

## Doripenem hydrate
[1]
  radioprotection in dose response, senescence assay: variable protection
  double hit in the drug screen: double hits
  Estimated EC50, Senescence: 16.4 µM

## CCCCC1C(=O)N(c2ccccc2)N(c2ccccc2)C1=O [Phenylbutazone]
[1]
  radioprotection in dose response, senescence assay: only partial protection
  Estimated EC50, Senescence: 0.05 µM
COX-1
  COX-1 inhibition: inhibits
[2]
  bioavailability: up to 90%
  half-life: 50 to 105 h
COX-2
  COX-2 inhibition: inhibits
[3]
  adverse effects: rare but severe blood disorders, including anemia and leukopenia
